PubChem BioAssay AID602444 (National Center for Advancing Translational Sciences (NCATS), 2012)

Tested on: mouse liver microsomes without NADPH, percent remaining
Test: High Content Assay for Compounds that inhibit the Assembly of the Perinucleolar Compartment: Mouse Liver Microsome Stability without NADPH
Conditions: hits give low values
Text: The perinucleolar compartment (PNC) is a non-membrane-bound nuclear subdomain that is associated with but structurally distinct from the nucleolus. The PNC is a heritable trait, in which the number of PNCs per cell in daughter cells often mimics that of their mother cells. The PNC is heterogeneous in shape, is stable through interphase, disassembles during mitosis, and reassembles in early G1. The PNC is concentrated with newly synthesized RNA polymerase III (pol III) RNAs (MRP RNA, RNAse P H1 RNA, hY RNAs[hY1, 2, 5], Alu RNA, and SRP [7SL] RNA) and RNA binding proteins (nucleolin, PTB, CUG-BP, KSRP, Raver1, Raver2, and Rod).
Extensive in vitro studies have shown that the PNC is unique to tumor cells and preferentially forms in tumor cells derived from solid tissues. Examination of cancer cell lines from various origins and malignant capacities has shown that PNC prevalence correlates with the malignancy of tumors and has the potential to be developed as a pan-cancer prognostic marker.
Mouse liver microsomes are generated from lysed mouse liver. Liver microsomes contain many drug metabolizing enzymes, including Cytochome P-450s and flavin-containing monooxygenases. Because drug metabolism is major way of drug clearance, this is an important result. […]
1uM of compound in incubated in mouse liver microsome; the reference compound is ketanserin. […] Samples are analyzed with LC-MS/MS.

Compound: N=c1c2c(-c3ccccc3)c(-c3ccccc3)n(Cc3ccccc3)c2ncn1C1CCC(O)CC1 (stereo unspecified)
- percent remaining: 106%
